# Molecular target: T1, hCRTH2 receptor (Homo sapiens, UniProt Q9Y5Y4)
# T1 construct: expressed in transfected cells; host or cells: HEK293
# T1 sequence (Q9Y5Y4 1-395): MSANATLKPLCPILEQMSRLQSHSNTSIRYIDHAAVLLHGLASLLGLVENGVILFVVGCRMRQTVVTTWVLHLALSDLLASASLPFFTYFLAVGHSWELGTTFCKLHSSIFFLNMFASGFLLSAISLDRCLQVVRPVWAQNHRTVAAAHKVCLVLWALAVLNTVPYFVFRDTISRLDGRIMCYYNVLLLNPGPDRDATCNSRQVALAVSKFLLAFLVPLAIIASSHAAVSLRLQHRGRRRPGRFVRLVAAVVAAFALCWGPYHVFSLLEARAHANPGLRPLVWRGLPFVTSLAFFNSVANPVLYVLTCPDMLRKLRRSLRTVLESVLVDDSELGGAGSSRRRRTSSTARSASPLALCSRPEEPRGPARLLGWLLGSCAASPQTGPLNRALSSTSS
# Test: Radioligand displacement assay (3H-PGD2) on hCRTH2 receptor membranes
# Type: binding
# Details: antagonistic activity, 3H-PGD2 radioligand displacement, HEK293-hCRTH2 membranes
row,Compound,IC50 [nM]
1,"CC(C)[C@@H]1C[C@H]1C(=O)N1CCc2ccccc2[C@H]1c1cc(Cl)ccc1OCC(=O)O (single isomer, unassigned) [Example 464]",789
2,"CC(C)[C@@H]1C[C@H]1C(=O)N1CCc2ccccc2[C@H]1c1cc(Cl)ccc1OCC(=O)O (single isomer, unassigned) [Example 465]",53.5
3,"Cc1nn(CCC(=O)N2Cc3ccccc3C2c2cc(Cl)ccc2OCC(=O)O)c2cccc(Cl)c12 (single isomer, unassigned) [Example 529]",78
4,"Cc1nn(CCC(=O)N2Cc3ccccc3C2c2cc(Cl)ccc2OCC(=O)O)c2c(F)cccc12 (single isomer, unassigned) [Example 530]",101
5,"Cc1nn(CCC(=O)N2Cc3ccccc3C2c2cc(Cl)ccc2OCC(=O)O)c2cc(Cl)ccc12 (single isomer, unassigned) [Example 532, (4-Chloro-2-{2-[3-(6-chloro-3-methyl-indazol-1-yl)-propionyl]-2,3-dihydro-1H-isoindol-1-yl}-phenoxy)-acetic acid]",40.7

# Other lines, results leading:
row,IC50 [nM],Compound
1,8.12,"O=C(O)COc1ccc(Cl)cc1C1c2ccccc2CN1C(=O)CCn1ncc2cc(F)ccc21 (single isomer, unassigned) [Example 527, (4-Chloro-2-{2-[3-(5-fluoro-indazol-1-yl)-propionyl]-2,3-dihydro-1H-isoindol-1-yl}-phenoxy)-acetic acid]"
2,33.2,"Cc1nn(CCC(=O)N2Cc3ccccc3C2c2cc(Cl)ccc2OCC(=O)O)c2cccc(F)c12 (single isomer, unassigned) [Example 528, (4-Chloro-2-{2-[3-(4-fluoro-3-methyl-indazol-1-yl)-propionyl]-2,3-dihydro-1H-isoindol-1-yl}-phenoxy)-acetic acid]"
3,30.9,"Cc1nn(CCC(=O)N2Cc3ccccc3C2c2cc(Cl)ccc2OCC(=O)O)c2cc(F)ccc12 (single isomer, unassigned) [Example 531, (4-Chloro-2-{2-[3-(6-fluoro-3-methyl-indazol-1-yl)-propionyl]-2,3-dihydro-1H-isoindol-1-yl}-phenoxy)-acetic acid]"
4,6.09,"Cc1nn(CCC(=O)N2Cc3ccccc3C2c2cc(Cl)ccc2OCC(=O)O)c2ccccc12 (single isomer, unassigned) [Example 533, (4-Chloro-2-{2-[3-(3-methyl-indazol-1-yl)-propionyl]-2,3-dihydro-1H-isoindol-1-yl}-phenoxy)-acetic acid]"
5,12.9,"O=C(O)COc1ccc(Cl)cc1C1c2ccccc2CN1C(=O)CCn1ncc2ccc(F)cc21 (single isomer, unassigned) [Example 534, (4-Chloro-2-{2-[3-(6-fluoro-indazol-1-yl)-propionyl]-2,3-dihydro-1H-isoindol-1-yl}-phenoxy)-acetic acid]"

# Same assay, conditions: antagonistic activity; 3H-PGD2 displacement on HEK293-hCRTH2 membrane fragments
row,IC50 [nM],Compound
1,4.83,"Cc1ccccc1C1CC1C(=O)N1CCc2ccccc2C1c1cc(Cl)ccc1OCC(=O)O (single isomer, unassigned) [Example 154, (±)-{4-Chloro-2-[2-((trans)-2-o-tolyl-cyclopropanecarbonyl)-1,2,3,4-tetrahydro-isoquinolin-1-yl]-phenoxy}-acetic acid (diastereosiomer 2)]"
2,166,"O=C(O)COc1ccc(Cl)cc1C1c2ccccc2CCN1C(=O)C1CC1c1ccccc1C(F)(F)F (single isomer, unassigned) [Example 155, (±)-(4-Chloro-2-{2-[(trans)-2-(2-trifluoromethyl-phenyl)-cyclopropanecarbonyl]-1,2,3,4-tetrahydro-iso-quinolin-1-yl}-phenoxy)-acetic acid (diatereoisomer 1)]"
3,14.2,"O=C(O)COc1ccc(Cl)cc1C1c2ccccc2CCN1C(=O)C1CC1c1ccccc1C(F)(F)F (single isomer, unassigned) [Example 156, (±)-(4-Chloro-2-{2-[(trans)-2-(2-trifluoromethyl-phenyl)-cyclopropanecarbonyl]-1,2,3,4-tetrahydro-iso-quinolin-1-yl}-phenoxy)-acetic acid (diatereoisomer 2)]"

# From patent US8575158B2, “1-phenyl-substituted heterocyclyl derivatives and their use as prostaglandin D2 receptor modulators” (Actelion Pharmaceuticals Ltd., priority 2010, dated 2013)
